# In ChEMBL document CHEMBL1201862, “PubChem BioAssay data set” (2004):
#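 Grown in 96-well plates, cells were treated for 48 hours with each compound at five concentrations. Insufficient inhibition: endpoint recorded as highest concentration tested. Here, GI50 denotes the concentration required for 50% inhibition of growth.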 The source made the active and inactive calls. Rule as the data show it: active = GI50 up to about 1.1 µM and inactive = higher.
# Key:
# Experiment in all cases: NCI tumour cell line growth inhibition, 48 h
# [1] = tested on: SF-268
# [2] = tested on: CCRF-CEM
# [3] = tested on: HL-60
# [4] = tested on: HOP-92
# [5] = tested on: K562
# [6] = tested on: KM12
# [7] = tested on: ACHN
# [8] = tested on: IGROV-1
# [9] = tested on: HCT-15
# [10] = tested on: NCI-H460
# [11] = tested on: DLD-1
# [12] = tested on: RPMI-8226
# [13] = tested on: OVCAR-8
# [14] = tested on: RXF 393
# [15] = tested on: CAKI-1
# [16] = tested on: M14
# [17] = tested on: SW-620
# [18] = tested on: NCI/ADR-RES
# [19] = tested on: SR
# [20] = tested on: MDA-MB-231
Compound,GI50 [1],GI50 [2],GI50 [3],GI50 [4],GI50 [5],GI50 [6],GI50 [7],GI50 [8],GI50 [9] [µM],GI50 [10],GI50 [11],GI50 [12],GI50 [13],GI50 [14],GI50 [15],GI50 [16],GI50 [17],GI50 [18],GI50 [19],GI50 [20]
CC1C(=O)CCC1C(Sc1ccccc1)(Sc1ccccc1)Sc1ccccc1 (configuration not stated),10.7 µM (inactive),3.48 µM (inactive),5.83 µM (inactive),8.43 µM (inactive),20.5 µM (inactive),24.7 µM (inactive),19.9 µM (inactive),15.1 µM (inactive),30.3,41.4 µM (inactive),28.8 µM (inactive),12.6 µM (inactive),24.3 µM (inactive),14.2 µM (inactive),16.9 µM (inactive),25 µM (inactive),27 µM (inactive),,,
O=c1cccccc1NCCCCNc1cccccc1=O,41.4 µM (inactive),> 100 µM (inactive),49.7 µM (inactive),,> 100 µM (inactive),> 100 µM (inactive),54.8 µM (inactive),> 100 µM (inactive),84.7,> 100 µM (inactive),57.3 µM (inactive),43.4 µM (inactive),> 100 µM (inactive),,83 µM (inactive),55.7 µM (inactive),67.6 µM (inactive),,,
O=C1c2ccccc2C(=O)c2c1ccc1nc3c(nc21)-c1c2ccccc2cc2cccc-3c12,29.4 µM (inactive),5.33 µM (inactive),10 µM (inactive),> 73.8 µM (inactive),> 29.6 µM (inactive),8.36 µM (inactive),16.1 µM (inactive),9.16 µM (inactive),29.4,26.2 µM (inactive),,39.5 µM (inactive),27.4 µM (inactive),39.4 µM (inactive),23.4 µM (inactive),32.4 µM (inactive),> 63.1 µM (inactive),36.3 µM (inactive),5.27 µM (inactive),74.1 µM (inactive)
CCCCCCCCCCCCCCC[C@@H](O)C[N+](C)(C)CCO,1.72 µM (inactive),1.25 µM (inactive),0.149 µM (active),1.27 µM (inactive),2.41 µM (inactive),0.841 µM (active),3.95 µM (inactive),0.434 µM (active),2.6,1.52 µM (inactive),,2.21 µM (inactive),5.13 µM (inactive),1.11 µM (active),0.977 µM (active),3.62 µM (inactive),4.14 µM (inactive),13.6 µM (inactive),1.72 µM (inactive),1.8 µM (inactive)
N#CC(C(=N/O)/C(=N/O)C(C#N)c1ccc(Cl)cc1)c1ccc(Cl)cc1 (configuration not stated),> 100 µM (inactive),,,> 100 µM (inactive),,> 100 µM (inactive),> 100 µM (inactive),> 100 µM (inactive),55.2,> 100 µM (inactive),> 100 µM (inactive),40.5 µM (inactive),40 µM (inactive),46.7 µM (inactive),42.9 µM (inactive),> 100 µM (inactive),76.7 µM (inactive),,,
CC/C(Cl)=N\OC(=O)Nc1ccc(F)c([N+](=O)[O-])c1,16.9 µM (inactive),2.59 µM (inactive),2.39 µM (inactive),5.14 µM (inactive),3.05 µM (inactive),17.5 µM (inactive),1.92 µM (inactive),17.9 µM (inactive),6.44,3.73 µM (inactive),,2.94 µM (inactive),16.6 µM (inactive),16.7 µM (inactive),2.85 µM (inactive),10.3 µM (inactive),4.15 µM (inactive),26.9 µM (inactive),> 39.5 µM (inactive),18.2 µM (inactive)
O=C(CCc1nnc2s/c(=C\c3ccccc3[N+](=O)[O-])c(=O)n12)Nc1cc(Cl)c(Cl)cc1Cl,26.5 µM (inactive),24.4 µM (inactive),,18.7 µM (inactive),22 µM (inactive),19.5 µM (inactive),35.8 µM (inactive),69.5 µM (inactive),40.4,27.4 µM (inactive),25.2 µM (inactive),,25.9 µM (inactive),22 µM (inactive),,32.5 µM (inactive),> 10 µM (inactive),,,
CC(=O)OC1(C#N)CC2OC1C1NC21 (configuration not stated),> 100 µM (inactive),> 100 µM (inactive),> 100 µM (inactive),> 100 µM (inactive),> 100 µM (inactive),,> 100 µM (inactive),> 100 µM (inactive),> 100,> 100 µM (inactive),> 100 µM (inactive),> 100 µM (inactive),> 100 µM (inactive),> 100 µM (inactive),> 100 µM (inactive),> 100 µM (inactive),> 100 µM (inactive),,,
Cc1ccc(S(=O)(=O)Oc2cc(S(=O)(=O)O)cc3cc(S(=O)(=O)O)cc(N)c23)cc1,> 100 µM (inactive),> 100 µM (inactive),> 100 µM (inactive),22 µM (inactive),> 100 µM (inactive),> 100 µM (inactive),> 100 µM (inactive),> 100 µM (inactive),> 100,> 100 µM (inactive),,> 100 µM (inactive),> 100 µM (inactive),> 100 µM (inactive),> 100 µM (inactive),> 100 µM (inactive),> 100 µM (inactive),> 100 µM (inactive),> 100 µM (inactive),> 100 µM (inactive)
